Experimental data taken from the NIST ThermoML archive (doi:10.1016/j.jct.2014.07.019).

Assay: xn = mol fraction of the nth substance listed
Details: 100 kPa, Liquid; for speed of sound: Frequency=3 MHz, Sing-around technique in a fixed-path interferometer; for mass density: Vibrating tube method

CCCCOCC(C)O (stereo not given) [1-butoxy-2-propanol] + CCC(C)O
Details	mass density, 293.15 K [kg/m3]	mass density, 298.15 K [kg/m3]	mass density, 303.15 K [kg/m3]	mass density, 308.15 K [kg/m3]	mass density, 313.15 K [kg/m3]	speed of sound, 293.15 K [m/s]	speed of sound, 298.15 K [m/s]	speed of sound, 303.15 K [m/s]	speed of sound, 308.15 K [m/s]	speed of sound, 313.15 K [m/s]
x1 = 0.0517	812.712	808.614	804.434	800.162	795.809	1234.4	1217.3	1201.4	1181.6	1163.6
x1 = 0.1014	818.284	814.152	809.949	805.653	801.286	1238.8	1221.5	1205.7	1186	1168
x1 = 0.1527	823.685	819.533	815.316	811.017	806.644	1243	1225.9	1209.6	1190	1172
x1 = 0.2041	828.704	824.532	820.316	816	811.61	1246.9	1229.4	1213.3	1194	1176
x1 = 0.2815	835.699	831.499	827.23	822.897	818.493	1252.2	1234	1218.3	1199.1	1181.2
x1 = 0.3581	841.995	837.767	833.49	829.144	824.735	1256.8	1238.2	1222.6	1203.6	1185.7
x1 = 0.4421	848.377	844.12	839.804	835.438	831.018	1261.1	1242.5	1226.7	1207.9	1190
x1 = 0.5348	854.7	850.417	846.095	841.719	837.299	1265.3	1246.8	1230.6	1212	1194.1
x1 = 0.627	860.446	856.141	851.795	847.417	842.98	1268.8	1250.7	1233.8	1215.3	1197.5
x1 = 0.7213	865.799	861.469	857.116	852.712	848.267	1271.6	1254	1236.5	1218.2	1200.3
x1 = 0.8116	870.476	866.131	861.747	857.328	852.892	1274	1256.4	1238.8	1220.6	1202.8
x1 = 0.8581	872.724	868.372	863.985	859.577	855.127	1275.3	1257.5	1239.8	1221.9	1204.1
x1 = 0.9062	874.964	870.61	866.21	861.774	857.32	1276.4	1258.6	1240.8	1222.8	1205
x1 = 0.9536	877.051	872.689	868.316	863.853	859.383	1277.7	1259.7	1242	1223.9	1206.1
x1 = 1	879.031	874.632	870.204	865.737	861.241	1279	1260.9	1242.9	1224.9	1207

CCCCOCC(C)O (stereo not given) [1-butoxy-2-propanol] + CCCCO
Details	mass density, 293.15 K [kg/m3]	mass density, 298.15 K [kg/m3]	mass density, 303.15 K [kg/m3]	mass density, 308.15 K [kg/m3]	mass density, 313.15 K [kg/m3]	speed of sound, 293.15 K [m/s]	speed of sound, 298.15 K [m/s]	speed of sound, 303.15 K [m/s]	speed of sound, 308.15 K [m/s]	speed of sound, 313.15 K [m/s]
x1 = 0.0519	815.814	811.979	808.09	804.168	800.279	1259.9	1243.7	1227.1	1210.6	1193
x1 = 0.0992	821.015	817.166	813.235	809.277	805.328	1262.1	1246.1	1229.4	1212.9	1194.8
x1 = 0.1522	826.515	822.607	818.628	814.607	810.63	1264.4	1248.7	1232	1215.4	1196.7
x1 = 0.2025	831.372	827.404	823.395	819.351	815.31	1266.4	1250.8	1234.1	1217.4	1198.4
x1 = 0.2533	835.963	831.953	827.91	823.833	819.767	1268.2	1252.7	1235.8	1219	1199.9
x1 = 0.3031	840.187	836.14	832.063	827.949	823.842	1269.8	1254.1	1237.2	1220.3	1201.2
x1 = 0.4039	847.844	843.734	839.592	835.411	831.226	1272.5	1256.4	1239.4	1222.4	1203.2
x1 = 0.4992	854.333	850.165	845.969	841.732	837.498	1274.5	1258.4	1241.2	1224	1204.8
x1 = 0.6055	860.746	856.533	852.278	847.986	843.678	1276.3	1260.1	1242.8	1225.4	1206.2
x1 = 0.7017	865.941	861.685	857.378	853.038	848.688	1277.4	1260.8	1243.5	1226.1	1207
x1 = 0.8058	871.007	866.701	862.345	857.961	853.562	1278.3	1261.3	1243.9	1226.4	1207.5
x1 = 0.852	873.053	868.741	864.367	859.962	855.538	1278.6	1261.3	1243.9	1226.3	1207.5
x1 = 0.8982	875.005	870.664	866.282	861.844	857.451	1278.8	1261.3	1243.9	1226.3	1207.5
x1 = 0.9565	877.407	873.039	868.667	864.216	859.743	1279	1261.5	1243.9	1226.3	1207.5
x1 = 1	879.031	874.632	870.204	865.737	861.241	1279	1260.9	1242.9	1224.9	1207
